Reference: patent US7960377B2 (priority 2008, dated 2011)

Key:
[1] = target: T1, rat CB2 receptor (Rattus norvegicus, UniProt Q9QZN9); experiment: cell-based; assay type: cell-based
T1 sequence (Q9QZN9 1-360): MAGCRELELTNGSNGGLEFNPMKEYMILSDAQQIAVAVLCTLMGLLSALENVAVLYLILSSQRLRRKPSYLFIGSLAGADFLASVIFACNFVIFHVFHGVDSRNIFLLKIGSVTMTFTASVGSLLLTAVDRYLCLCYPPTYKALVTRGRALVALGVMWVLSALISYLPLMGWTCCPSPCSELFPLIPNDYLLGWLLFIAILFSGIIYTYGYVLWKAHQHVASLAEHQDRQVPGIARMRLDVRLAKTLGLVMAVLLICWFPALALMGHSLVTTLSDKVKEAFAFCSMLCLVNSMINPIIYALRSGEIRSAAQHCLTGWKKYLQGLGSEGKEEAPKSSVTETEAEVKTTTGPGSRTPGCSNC

[2] = target: human CB1 receptor (Homo sapiens, UniProt P21554); experiment: cell-based
Sequence of human CB1 receptor (P21554 whole entry): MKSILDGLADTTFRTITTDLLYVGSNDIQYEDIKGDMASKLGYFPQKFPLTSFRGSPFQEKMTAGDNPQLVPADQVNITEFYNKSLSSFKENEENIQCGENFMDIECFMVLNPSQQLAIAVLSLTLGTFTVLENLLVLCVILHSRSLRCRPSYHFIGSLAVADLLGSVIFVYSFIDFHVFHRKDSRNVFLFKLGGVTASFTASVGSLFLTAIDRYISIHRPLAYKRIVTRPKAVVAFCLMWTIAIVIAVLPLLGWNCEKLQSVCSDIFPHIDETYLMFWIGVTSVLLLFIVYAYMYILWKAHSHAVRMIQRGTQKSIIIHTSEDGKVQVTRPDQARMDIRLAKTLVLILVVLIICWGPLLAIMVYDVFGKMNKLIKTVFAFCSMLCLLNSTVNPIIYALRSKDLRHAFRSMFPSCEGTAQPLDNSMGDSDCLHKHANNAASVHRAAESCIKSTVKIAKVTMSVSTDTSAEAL

## CC(C)(C)NC(=O)c1cnc2c(c1)N(S(=O)(=O)c1cccc(Cl)c1)CCO2 [Example 89, N-tert-butyl-1-(3-chlorophenylsulfonyl)-2,3-dihydro-1H-pyrido[2,3-b][1,4]oxazine-7-carboxamide]
[1]
  EC50: ≤ 30 nM
[2]
  EC50: > 30 µM

## CC(C)(C)NC(=O)c1cnc2c(c1)N(S(=O)(=O)c1ccsc1)CCO2 [Example 90, N-tert-butyl-1-(thiophen-3-ylsulfonyl)-2,3-dihydro-1H-pyrido[2,3-b][1,4]oxazine-7-carboxamide]
[1]
  EC50: ≤ 30 nM
[2]
  EC50: > 30 µM

## Cc1csc(S(=O)(=O)N2CCOc3ncc(C(=O)NC(C)(C)C)cc32)c1 [Example 92, N-tert-butyl-1-(4-methylthiophen-2-ylsulfonyl)-2,3-dihydro-1H-pyrido[2,3-b][1,4]oxazine-7-carboxamide]
[1]
  EC50: ≤ 30 nM
[2]
  EC50: > 30 µM

## CC(C)(CO)NC(=O)c1cnc2c(c1)N(S(=O)(=O)c1ccc(Cl)c(Cl)c1)CCO2 [Example 95, 1-(3,4-dichlorophenylsulfonyl)-N-(1-hydroxy-2-methylpropan-2-yl)-2,3-dihydro-1H-pyrido[2,3-b][1,4]oxazine-7-carboxamide]
[1]
  EC50: ≤ 30 nM
[2]
  EC50: > 30 µM

## CC(C)(CO)NC(=O)c1cnc2c(c1)N(S(=O)(=O)c1ccc(Cl)cc1F)CCO2 [Example 96, 1-(4-chloro-2-fluorophenylsulfonyl)-N-(1-hydroxy-2-methylpropan-2-yl)-2,3-dihydro-1H-pyrido[2,3-b][1,4]oxazine-7-carboxamide]
[1]
  EC50: ≤ 30 nM
[2]
  EC50: > 30 µM

## CC(C)(O)CNC(=O)c1cnc2c(c1)N(S(=O)(=O)c1ccc(Cl)cc1F)CCO2 [Example 97, 1-(4-chloro-2-fluorophenylsulfonyl)-N-(2-hydroxy-2-methylpropyl)-2,3-dihydro-1H-pyrido[2,3-b][1,4]oxazine-7-carboxamide]
[1]
  EC50: ≤ 30 nM
[2]
  EC50: > 30 µM

## CC(C)(O)CNC(=O)c1cnc2c(c1)N(S(=O)(=O)c1ccc(Cl)c(Cl)c1)CCO2 [Example 98]
[1]
  EC50: ≤ 30 nM
[2]
  EC50: > 30 µM

## CC(C)(CO)NC(=O)c1cnc2c(c1)N(S(=O)(=O)c1ccc(F)c(Cl)c1)CCO2 [Example 99, 1-(3-chloro-4-fluorophenylsulfonyl)-N-(1-hydroxy-2-methylpropan-2-yl)-2,3-dihydro-1H-pyrido[2,3-b][1,4]oxazine-7-carboxamide]
[1]
  EC50: ≤ 30 nM
[2]
  EC50: > 30 µM

## COc1ccc(S(=O)(=O)N2CCOc3ncc(C(=O)NC(C)(C)CO)cc32)c(F)c1 [Example 103, 1-(2-fluoro-4-methoxyphenylsulfonyl)-N-(1-hydroxy-2-methylpropan-2-yl)-2,3-dihydro-1H-pyrido[2,3-b][1,4]oxazine-7-carboxamide]
[1]
  EC50: ≤ 30 nM
[2]
  EC50: > 30 µM

## COc1ccc(S(=O)(=O)N2CCOc3ncc(C(=O)NCC(C)(C)O)cc32)cc1Cl [Example 104]
[1]
  EC50: ≤ 30 nM
[2]
  EC50: > 30 µM

## CC(C)(CN1CCOCC1)NC(=O)c1cnc2c(c1)N(S(=O)(=O)c1ccc(Cl)cc1F)CCO2 [Example 113, 1-(4-chloro-2-fluorophenylsulfonyl)-N-(2-methyl-1-morpholinopropan-2-yl)-2,3-dihydro-1H-pyrido[2,3-b][1,4]oxazine-7-carboxamide]
[1]
  EC50: ≤ 30 nM
[2]
  EC50: > 30 µM

## O=C(N[C@@H]1CCC[C@H]1O)c1cnc2c(c1)N(S(=O)(=O)c1ccc(Cl)c(Cl)c1)CCO2 [Example 133, 1-(3,4-dichlorophenyl-sulfonyl)-N-((1R,2R)-2-hydroxycyclopentyl)-2,3-dihydro-1H-pyrido[2,3-b][1,4]oxazine-7-carboxamide]
[1]
  EC50: ≤ 30 nM
[2]
  EC50: > 30 µM

## O=C(NC1CCC1)c1cnc2c(c1)N(S(=O)(=O)c1ccc(Cl)c(Cl)c1)CCO2 [Example 137, N-cyclobutyl-1-(3,4-dichlorophenylsulfonyl)-2,3-dihydro-1H-pyrido[2,3-b][1,4]oxazine-7-carboxamide]
[1]
  EC50: ≤ 30 nM
[2]
  EC50: > 30 µM

## O=C(NCc1ccccc1)c1cnc2c(c1)N(S(=O)(=O)c1ccc(Cl)c(Cl)c1)CCO2 [Example 138, N-benzyl-1-(3,4-dichlorophenylsulfonyl)-2,3-dihydro-1H-pyrido[2,3-b][1,4]oxazine-7-carboxamide]
[1]
  EC50: ≤ 30 nM
[2]
  EC50: > 30 µM

## CCOC(=O)C1(NC(=O)c2cnc3c(c2)N(S(=O)(=O)c2ccc(Cl)c(Cl)c2)CCO3)CCC1 [Example 139, ethyl 1-(1-(3,4-dichloro-phenylsulfonyl)-2,3-dihydro-1H-pyrido[2,3-b][1,4]oxazine-7-carboxamido)cyclobutane-carboxylate]
[1]
  EC50: ≤ 30 nM
[2]
  EC50: > 30 µM

## CC(C)(C)NC(=O)c1cnc2c(c1)N(S(=O)(=O)N1CCOCC1)CCO2 [Example 140, N-tert-butyl-1-(morpholinosulfonyl)-2,3-dihydro-1H-pyrido[2,3-b][1,4]oxazine-7-carboxamide]
[1]
  EC50: ≤ 30 nM
[2]
  EC50: > 30 µM

## CC(C)(CO)NC(=O)c1cnc2c(c1)N(S(=O)(=O)N1CCCCC1)CCO2 [Example 146, N-(1-hydroxy-2-methylpropan-2-yl)-1-(piperidin-1-ylsulfonyl)-2,3-dihydro-1H-pyrido[2,3-b][1,4]oxazine-7-carboxamide]
[1]
  EC50: ≤ 30 nM
[2]
  EC50: > 30 µM

## CC(C)(C)NC(=O)c1cnc2c(c1)N(S(=O)(=O)N1CCC(F)CC1)CCO2 [Example 166, N-tert-butyl-1-(4-fluoropiperidin-1-ylsulfonyl)-2,3-dihydro-1H-pyrido[2,3-b][1,4]oxazine-7-carboxamide]
[1]
  EC50: ≤ 30 nM
[2]
  EC50: > 30 µM

## CC(C)(CO)CNC(=O)c1cnc2c(c1)N(S(=O)(=O)N1CCC(F)CC1)CCO2 [Example 169, 1-(4-fluoropiperidin-1-ylsulfonyl)-N-(3-hydroxy-2,2-dimethylpropyl)-2,3-dihydro-1H-pyrido[2,3-b][1,4]oxazine-7-carboxamide]
[1]
  EC50: ≤ 30 nM
[2]
  EC50: > 30 µM

## CC1CCN(S(=O)(=O)N2CCOc3ncc(C(=O)NC(C)(C)C)cc32)CC1 [Example 170, N-tert-butyl-1-(4-methylpiperidin-1-ylsulfonyl)-2,3-dihydro-1H-pyrido[2,3-b][1,4]oxazine-7-carboxamide]
[1]
  EC50: ≤ 30 nM
[2]
  EC50: > 30 µM

## CCC(C)(C)NC(=O)c1cnc2c(c1)N(S(=O)(=O)N1CCC(C)CC1)CCO2 [Example 171, 1-(4-methylpiperidin-1-ylsulfonyl)-N-tert-pentyl-2,3-dihydro-1H-pyrido[2,3-b][1,4]oxazine-7-carboxamide]
[1]
  EC50: ≤ 30 nM
[2]
  EC50: > 30 µM

## CC1CCN(S(=O)(=O)N2CCOc3ncc(C(=O)NC(C)(C)CO)cc32)CC1 [Example 172, N-(1-hydroxy-2-methylpropan-2-yl)-1-(4-methylpiperidin-1-ylsulfonyl)-2,3-dihydro-1H-pyrido[2,3-b][1,4]oxazine-7-carboxamide]
[1]
  EC50: ≤ 30 nM
[2]
  EC50: > 30 µM

## CC(C)(C)NC(=O)c1cnc2c(c1)N(S(=O)(=O)NCc1ccccc1)CCO2 [Example 178, 1-(N-benzylsulfamoyl)-N-tert-butyl-2,3-dihydro-1H-pyrido[2,3-b][1,4]oxazine-7-carboxamide]
[1]
  EC50: ≤ 30 nM
[2]
  EC50: > 30 µM

## CC(C)CNS(=O)(=O)N1CCOc2ncc(C(=O)NC(C)(C)C)cc21 [Example 180, N-tert-butyl-1-(N-isobutylsulfamoyl)-2,3-dihydro-1H-pyrido[2,3-b][1,4]oxazine-7-carboxamide]
[1]
  EC50: ≤ 30 nM
[2]
  EC50: > 30 µM
